Measurements as given in US20090118135A1, “METHODS AND COMPOUNDS FOR REGULATING APOPTOSIS” (The Burnham Institute, priority 2007, published 2009).
Like-named read-outs stand apart in the source and are kept apart here.

Target: T1, GST-Bcl-B (Homo sapiens, UniProt Q9HD36)
T1 sequence (Q9HD36 1-182 limits assumed): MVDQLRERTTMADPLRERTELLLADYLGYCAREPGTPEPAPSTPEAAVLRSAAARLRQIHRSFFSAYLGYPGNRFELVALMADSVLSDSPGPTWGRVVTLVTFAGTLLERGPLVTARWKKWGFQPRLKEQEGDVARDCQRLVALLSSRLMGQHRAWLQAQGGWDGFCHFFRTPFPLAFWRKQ
Assay: Bcl-B/FITC-TR3-r8 fluorescence polarization competition (displacement) assay, HTS and dose-response

[1] = read-out: Result Value (% Inhibition)
[2] = read-out: Result Value (Result Type % Inhibition), BCL-b/TR3
[3] = Table 8, NCI Structural library, Binding Assay, FP, Concentration 0.02 uM
[4] = Table 7, NCI Mechanistic library, Binding Assay, FP, Concentration 0.02 uM
[5] = read-out: Result Value (Result Type % Inhibition), BCL-b/TR3, Table 7, NCI Mechanistic library, Binding Assay, FP, Concentration 0.02 uM
[6] = LOPAC1280 library primary screen
[7] = LOPAC1280 library, fluorescence intensity normalized to plate negative controls
[8] = read-out: Result Value (Result Type % Inhibition), BCL-b/TR3, Table 8, NCI Structural library, Binding Assay, FP, Concentration 0.02 uM

Compound | inhibition at 0.02 µM [2] [%] | F Ratio [3] | Is Hit [3] | also measured
NC(Cc1cc(O)c(O)cc1O)C(=O)O (stereo not shown) [H 2380] |  |  |  | F Ratio: 0.06315; Is Hit: Yes; inhibition at 0.02 µM [1]: 136%
C=CCN1C(=O)NC(=O)/C(=C/c2cccn2-c2cccc([N+](=O)[O-])c2)C1=O [Compound 5987504] |  |  |  | IC50 (Bcl-B IC50 (g/L)): 5.59 µM; IC50 (Bcl-B IC50 (uM)): 5.36 µM; Bcl-B H Coefficient (Hill coefficient of Bcl-B dose-response curve): 1.773
Cc1cc(C(=C2C=CC(=N)C=C2)c2ccc(N)cc2)ccc1N [Compound 93739] | 78.6 |  |  | 
Nc1nc(N)c(/N=N/c2ccc(C(=O)O)c(O)c2)c(N)n1 [Compound 117285] | 59.9 | 0.2954 | Yes | 
CN(C)CCN1C(=O)c2cccc3cc(N)cc(c23)C1=O [Compound 308847] |  |  |  | F Ratio [4]: 0.6345; Is Hit [4]: Yes; inhibition at 0.02 µM [5]: 87.6%
Nc1ccc(/N=N/c2ccc(-c3ccc(O)cc3)cc2)c2ccc(S(=O)(=O)O)cc12 [Compound 65528] | 71.6 | 0.1609 | Yes | 
O=C1c2ccccc2C(=O)c2c(O)c(O)cc(O)c21 [Compound 10447] | 146 |  |  | F Ratio [4]: 0.5532; Is Hit [4]: Yes
O=S(=O)(O)c1ccc(NN(c2c(O)ccc3ccccc23)S(=O)(=O)O)cc1 [Compound 9600] | 50.7 | 0.4361 | Yes | 
COC1/C2=C(\O)C3(C)Oc4c5c(O)c6c(O)c(c(CN(C)C)c(O)c6c4C3=O)NC(=O)/C(C)=C\C=C/CC(O)C(C)C(O5)C(C)C(OC2=O)C1C (stereo not shown) [Compound 145612] | 54 | 0.9609 | Yes | 
O=S(=O)(O)c1cc(/N=[N+](\[O-])c2cc(S(=O)(=O)O)c3ccccc3c2)cc2ccccc12 [Compound 37031] | 84.6 | 0.4022 | Yes | 
N=C(N)c1ccc(/N=N/c2c(O)ccc3c2[nH]c2ccccc23)cc1 [Compound 357777] | 120 | 0.06989 | Yes | 
O=S(=O)(O)c1ccc2c(/N=N/c3cccc4ccccc34)c(O)c(S(=O)(=O)O)cc2c1 [Compound 45583] | 84.6 | 0.1069 | Yes | 
O=S(=O)(O)c1ccc2cc(/N=N/c3cc(S(=O)(=O)O)c4cccnc4c3O)ccc2c1 [Compound 87677] | 66.1 | 0.3822 | Yes | 
COc1ccc2nc3cc(Cl)ccc3c(Nc3ccc(O)c(CN4CCN(C)CC4)c3)c2c1.Cl [Compound 130813] | 133 | 0.07696 | Yes | 
O=[N+]([O-])c1ccc2c(/N=N/c3ccc4ccccc4c3O)c(O)cc(S(=O)(=O)O)c2c1 [Compound 7223] | 139 | 0.05712 | Yes | 
N=C1C(O)C2(I)c3ccccc3N3C(=N)C(O)C4c5ccccc5N1C4C32 (stereo not shown) [Compound 118176] | 62.3 | 0.5128 | Yes | 
COC(=O)c1ccc(O)c2nc3c(C=O)c(O)cc(O)c3nc12 [Compound 106995] | 98.9 |  |  | F Ratio [4]: 0.08027; Is Hit [4]: Yes
CN(N=O)c1ccc(O)c(O)c1 [M 9440] |  |  |  | Is Hit [6]: Yes; F Ratio [7]: 0.08483; inhibition at 0.02 µM (read-out: Result Value (% Inhibition), LOPAC1280 (Sigma-Aldrich) library, BCL-b/TR3 Binding Assay, FP, Concentration 0.02 uM, % competition): 121%
O=c1c(O)c(-c2cc(O)c(O)c(O)c2)oc2cc(O)cc(O)c12 [M 6750] |  |  |  | Is Hit [6]: Yes; F Ratio [7]: 0.1247; inhibition at 0.02 µM [1]: 61%
CNc1ccc(Nc2ccc(S(=O)(=O)O)cc2)c2c1C(=O)c1ccccc1C2=O [Compound 128437] | 166 | 0.9929 | Yes | 
Nc1c(S(=O)(=O)O)cc(Nc2cccc(S(N)(=O)=O)c2)c2c1C(=O)c1ccccc1C2=O [Compound 117079] | 163 | 0.4053 | Yes | 
CN(C)C1C(O)=C(C(=O)NCN2CCCC2)C(=O)C2(O)C(O)=C3C(=O)c4c(O)cccc4C(C)(O)C3CC12 (stereo not shown) [Compound 50352] |  | 0.2153 | Yes | inhibition at 0.02 µM [8]: 122%
c1ccc2c(NCCCCCCCCNc3c4ccccc4nc4ccccc34)c3ccccc3nc2c1 [Compound 219734] |  |  |  | F Ratio [4]: 0.2008; Is Hit [4]: Yes; Result Value (Result Type % Inhibition), BCL-b/TR3 [4]: 53.437%

Compound | inhibition at 0.02 µM [2] [%] | F Ratio [3] | Is Hit [3] | also measured
Oc1ccc(Cc2nccc3cc(O)c(O)cc23)cc1O [Compound 99799] | 77.4 | 0.09369 | Yes | 
O=[N+]([O-])c1ccc2c(/N=N/c3c(O)ccc4ccccc34)c(O)cc(S(=O)(=O)O)c2c1 [Compound 73413] | 125 |  |  | F Ratio [4]: 0.05947; Is Hit [4]: Yes
Oc1cc(O)c2c(c1)OC(c1ccc(O)c(O)c1)C(OC1(c3cc(O)c(O)c(O)c3)Oc3cc(O)cc(O)c3C(O)C1O)C2 (stereo not shown) [Compound 143101] | 82.8 | 0.1869 | Yes | 
O=C(c1cc(O)c(O)c([N+](=O)[O-])c1)c1ccccc1F [Compound R-108] |  |  |  | Is Hit [6]: Yes; F Ratio [7]: 0.1164; inhibition at 0.02 µM [1]: 69.6%
O=C1C=C(NCCc2cc(Br)c(O)c(Br)c2)C(=O)c2ncccc21 [Compound 668394] | 81.8 | 0.1777 | Yes | 
O=C(O)CCc1c2ccc(=O)c(O)c-2oc2c(O)c(O)ccc12 [Compound 119915] | 158 | 0.5317 | Yes | 
CN(C)CCc1c2c(nc3ccccc13)C(=O)c1cccnc1C2=O [Compound 680734] | 82.6 |  |  | F Ratio [4]: 0.1433; Is Hit [4]: Yes
CCOc1ccc2nc3cc(/N=N/c4ccc(N)nc4N)ccc3c(N)c2c1.Cl [Compound 354961] | 150 | 1.1279 | Yes | 
C[C@H](Cc1ccc(O)c(O)c1)[C@@H](C)Cc1ccc(O)c(O)c1 [N 5023] |  |  |  | Is Hit [6]: Yes; F Ratio [7]: 0.09564; inhibition at 0.02 µM [1]: 67.5%
O=S(=O)(O)c1cc(/N=N/c2cc(S(=O)(=O)O)c3ccccc3c2O)ccc1/C=C/c1ccc(/N=N/c2cc(S(=O)(=O)O)c3ccccc3c2O)cc1S(=O)(=O)O [Compound 34931] | 80.3 |  |  | F Ratio [4]: 0.0509; Is Hit [4]: Yes
O=C(O)c1cccc(/N=N/c2c(S(=O)(=O)O)ccc3c2C(=O)c2ccccc2C3=O)c1O [Compound 125908] | 124 | 0.2215 | Yes | 
O=[N+]([O-])c1cc(O)c(O)c([N+](=O)[O-])c1 [Compound D-131] |  |  |  | Result Value (% Inhibition) (LOPAC1280 (Sigma-Aldrich) library, BCL-b/TR3 Binding Assay, FP, Concentration 0.02 uM, % competition): 68.095%; Is Hit [6]: Yes; F Ratio [7]: 0.1464
O=S(=O)(O)c1cc(/N=N/c2cc(S(=O)(=O)O)c3cccnc3c2O)ccc1/C=C/c1ccc(/N=N/c2cc(S(=O)(=O)O)c3cccnc3c2O)cc1S(=O)(=O)O [Compound 635352] | 94 |  |  | F Ratio [4]: 0.04471; Is Hit [4]: Yes
Cc1cc2c(c3oc(C4OC4C4OC4C)cc(=O)c13)C(=O)c1c(O)c(C3CC(C)(N(C)C)C(O)C(C)O3)cc(C3CC(N(C)C)C(O)C(C)O3)c1C2=O (stereo not shown) [Compound 70929] |  |  |  | F Ratio [4]: 0.1099; Is Hit [4]: Yes; inhibition at 0.02 µM [5]: 105%
Oc1cc(O)c2c(c1)OC(c1ccc(O)c(O)c1)C(O)C2c1c(O)cc(O)c2c1OC(c1ccc(O)c(O)c1)C(O)C2 (stereo not shown) [Compound 143099] | 84.6 | 0.1606 | Yes | 
Nc1nc(Sc2ccc([N+](=O)[O-])c3nonc23)c2nc[nH]c2n1 [Compound 348401] | 68.6 | 1.4788 | Yes | 
O=C1c2cc([N+](=O)[O-])ccc2-c2ccc3c4ccc5c6c(ccc(c7ccc1c2c73)c64)C(=O)c1cc([N+](=O)[O-])ccc1-5 [Compound 51535] | 146 | 0.4823 | Yes | 
O=C(O)C1=CC(=C(c2ccc(O)c(C(=O)O)c2)c2ccc(O)c(C(=O)O)c2)C=CC1=O [A 1895] |  |  |  | Is Hit [6]: Yes; F Ratio [7]: 0.07629; inhibition at 0.02 µM [1]: 107%
C[n+]1c(/C=C/c2ccc(O)c3ncccc23)[se]c2ccccc21 [Compound 86374] |  | 0.09444 | Yes | inhibition at 0.02 µM [8]: 61.4%
O=c1c(O)c(-c2ccc(O)c(O)c2)oc2cc(O)cc(O)c12 [Q 0125] |  |  |  | Is Hit [6]: Yes; F Ratio [7]: 0.1424; inhibition at 0.02 µM [1]: 52%
O=C1OC(c2ccccc2)=N/C1=C\c1ccc(N(CCCl)CCCl)cc1 [Compound 104117] | 62.8 |  |  | F Ratio [4]: 1.2733; Is Hit [4]: Yes
[O-][n+]1c2c([n+]([O-])c3ccccc31)-c1cccc3cccc-2c13 [Compound 60309] | 72.3 |  |  | F Ratio [4]: 1.4371; Is Hit [4]: Yes
N=C1C=CC(=C(c2ccc(N)cc2)c2ccc(N)cc2)C=C1 [Compound 10460] | 81.7 | 0.1378 | Yes | 
